A short description of data set [1]: In vitro pH-sensitive DOX release, dialysis. It is filed as physicochemical. Here is the method: At designated times up to 6 days, 150 μL of solution outside the dialysis bag was collected and the same amount of fresh PBS was added back. After 3 days of incubation, the buffer was adjusted to pH 5.0 to induce the release of DOX from PEG-FTn. The concentrations of released free DOX at varying time points were measured by HPLC.

Data set [2] has as its system 3LL cells. Nature of the data set: Intracellular trafficking, confocal microscopy. It is filed as cell-based, mouse.
Data set [3] deals with A549-based spheroids. Nature of the data set: Penetration of DOX formulations in tumor spheroids. The format is cell-based, human. As to the method: (§1) Multicellular tumor spheroid models consisting of different cancer cell lines were prepared by modifying a previously reported protocol (Friedrich J, et al, Nature Protocols, 4:309-324 (2009)). Briefly, 50 μL DMEM medium containing 1.5% agarose (wt/vol) was plated onto each well of a 96-well microtiter plate under sterile conditions. After the agarose solidifies, the plates were stored at room temperature until use. For the penetration study, 5×10^3 cells were seeded onto the agarose-plated 96-well plates. After 4-5 days culture to obtain multicellular tumor spheroids (400-500 μm in diameter), the tumor spheroids were carefully transferred into glass bottom dishes. […] After the 2-hour incubation, the cells were observed using confocal microscopy with Z-stack imaging at ˜10 μm intervals. […] The 3D images of spheroids were reconstructed by ZEN microscopy software (Carl Zeiss). For analyzing the penetration distance, the radial intensity distribution profile was determined using a custom-made MATLAB code where αtumor is the radius of individual spheroids and r is the radial distance from the spheroid center (r/αtumor=0 and 1 indicate the center and edge of the tumor spheroid, respectively). […] Quantification analysis of signal intensity was performed with ImageJ software (NIH).
(§2) Multicellular tumor spheroids were prepared and post-treatment analyzed as described in Example 4.

Data set [4] relates to H1975-based spheroids. As to the kind of experiment: Penetration of DOX formulations in tumor spheroids. It is filed as cell-based, human. As to the method:
as §1, §2

Data set [5] relates to H460-based spheroids. As to the kind of experiment: Penetration of DOX formulations in tumor spheroids. The format is cell-based, human. As to the method: as §1, §2
Data set [6] relates to 3LL-based tumor spheroids. As to the kind of experiment: Penetration of DOX formulations in tumor spheroids. As to conditions: 10 μM DOX concentration. The format is cell-based, mouse. As to the method: as §1, §2
Data set [7] can be described thus: Physicochemical properties (hydrodynamic diameter, ζ-potential, drug loading). Here is the method: The DOX conjugated PEG-FTn is denoted as FTn/FTn-PEG2k/DOX. […] The mixture was incubated for 1 hour and 1.5 mg EDC was added to activate a carboxyl group of each DOX-linker conjugate. The resultant compounds were analyzed using high-performance liquid chromatography (HPLC, Varian Inc.) equipped with a C18 reverse phase column. […] The final product was extensively dialyzed (10 kDa MWCO; Thermo Scientific) and purified with a PD-10 column.

Data set [8] relates to 3LL tumor spheroids. As to the kind of experiment: Growth delay of 3D cell spheroids. It is filed as cell-based, mouse. The note with it: 10 μM DOX, up to 11 days. Here is the method: For cytotoxicity and growth delay experiments of 3D cell spheroids, 5×10^3 cells were seeded into the 96-well plates containing agarose. […] The diameters of tumor spheroids were recorded with a Zeiss Axiovert 200 phase-contrast microscope (Carl Zeiss) at the indicated time points.

In data set [9] the test system is 3LL-Luc orthotopic proximal lung cancer. As to the kind of experiment: In vivo anti-cancer efficacy, orthotopic proximal lung cancer model. On the set-up: species or system mouse. From the text:
To evaluate the efficacy of PEG-FTn-DOX for treating lung airway cancer, an aggressive orthotopic mouse model was established of proximal lung cancer in inbred mice with intact host immunity. The model was established via intratracheal intubation of cancer cells into the tracheal and bronchial epithelium of lung airways (DuPage M, et al., Nature protocols, 4:1064-1072 (2009)), which was relevant to small cell lung cancer and squamous-cell lung cancer. Briefly, female C57BL/6 mice (6-8 weeks) were inoculated with 2.5×10^4 3 LL-Luc cells in 50 μL of DMEM medium via intratracheal intubation using a 22 G×1″ Safelet catheter (Exel International). Three days after the inoculation, bioluminescence signal in the lung was observed using a Xenogen IVIS Spectrum optical imaging system. […] The tumor growth was monitored at various time points using an IVIS imaging system and the bioluminescence signal in lung at different time points was quantitatively analyzed by the Living Image® (Caliper Life Sciences) software. The survival of mice was recorded daily, and data was analyzed by Kaplan-Meier survival curve.
The luciferase activity of 3LL-Luc was visualized and quantified by a Xenogen IVIS Spectrum optical imaging system. In brief, mice were anesthetized with 2% isoflurane in O2 and received intraperitoneal injection of D-luciferin solution in PBS at a dose of 150 mg/kg. Serial images were acquired between 5 and 20 minutes after the D-luciferin administration, and the bioluminescence signal intensity was quantified by the Living Image® software.

Data set [10] deals with 3LL subcutaneous tumor. As to the kind of experiment: Tumor growth, 3LL subcutaneous tumor model, tail vein injection. It is filed as in vivo. As to conditions: day 10, injections at days 0, 2, 4, 6, 8. Here is the method: […] was injected at the tail vein to assay the effect on tumor growth in a 3LL subcutaneous tumor model at several time points (0, 2, 4, 6, and 8 days post tumor development). At day 10 post tumor development, the tumor volume was reduced in the animals treated with AF, as well as in the animals treated with […] treatment.

Data set [11] concerns Hif-1α. As to the kind of experiment: Hif-1α expression, western blotting in 3LL cells. The format is cell-based, mouse. The note with it: 0.625 to 2.5 μM AF, dose- and time-dependent. Here is the method: The inhibition was dose-dependent, i.e., increasing the amount of AF in the free AF or that in […] from 0.625 μM to 1.25 μM, further to 2.5 μM, decreased the level of Hif-1α expression. The inhibition was also time-dependent, i.e., the inhibition was more prominent after a 6 hour-incubation than a 24 h-incubation, and even more prominent than a 48 h-incubation. Hif-1α, a marker for tumor hypoxia, is an indicator of cancer progression, metastasis, and drug resistance in clinic.
In general terms: In western blotting, separated proteins are transferred to a membrane and probed.

Setting [12] is: single intratracheal dose 0.25 mg/kg, 11 days after treatment.

Several values for one entry are separate records, joined by “and”; a condition that tells them apart may be missing. Equal values may be shown once.

Take “FTn/FTn-PEG2k/DOX: DOX conjugated to FTn/FTn-PEG2k via acid-sensitive cis-aconityl linker”: the “maximum release of DOX” value in [1] (pH 5.0, after 4 hours) is listed as around 80%. In data set [1] (pH 7.4, over 3 days, 37° C.), the DOX released result was “negligible”. The “DOX found in cytoplasm compared with nucleus” value in data set [2] (30 min after addition) was around 95%. In [2] (2 h after addition), the “DOX found in cytoplasm compared with nucleus” value is recorded as around 55%. Moreover, in data set [2] (2 hours after addition), the colocalization with lysosomes entry is listed as “colocalized with lysosomes”; the “intracellular localization of DOX” value was “observed in both the cytoplasm and nucleus”. The “penetration compared to free DOX” value in data set [3] is recorded as “Improved penetration”. Moreover, the “penetration compared to free DOX” value in data set [4] is recorded as “Improved penetration”. In [5], the “penetration compared to free DOX” value was “Improved penetration”. Also, in data set [6], the “distribution in spheroids (3D confocal images)” value is listed as “uniformly distributed throughout the entire tumor spheroid” and the “mean fluorescence signal intensity in the entire spheroid vs free DOX” value was “significantly greater”. Moreover, in [7], the “DOX molecules per PEG-FTn” value was 88±5 and 88 ± 22; the Hydrodynamic diameter is 15.3 ± 3.2 nm; the ζ-potential is −7.4 ± 2.8 mV. Besides, in [8], the “delay of spheroid growth compared to free DOX” value is “superior ability of delaying the growth”. The substance further showed a progression-free survival in data set [9] (after 60 days) of 60%. In addition, in data set [9] (setting [12]), the “decrease in bioluminescence signal intensity compared to free DOX-treated mice” value is reported as 17 fold and the “decrease in bioluminescence signal intensity compared to untreated mice” value is 40 fold.
On to Acriflavine [AF], for which the tumor volume entry in data set [10] is “reduced”. The Hif-1α expression result in data set [11] is listed as “inhibited Hif-1α expression”.

The values above are taken from patent US11090391B2, “Protein nanocages with enhanced mucus penetration for targeted tissue and intracellular delivery” (The Johns Hopkins University, priority 2016, dated 2021).
